# Target: Amyloid-beta precursor protein (Homo sapiens, UniProt P05067)
# Assay: Inhibition of amyloid beta42 fibril formation by thioflavin T formation
# Amyloid-beta precursor protein, sequence (P05067 whole entry): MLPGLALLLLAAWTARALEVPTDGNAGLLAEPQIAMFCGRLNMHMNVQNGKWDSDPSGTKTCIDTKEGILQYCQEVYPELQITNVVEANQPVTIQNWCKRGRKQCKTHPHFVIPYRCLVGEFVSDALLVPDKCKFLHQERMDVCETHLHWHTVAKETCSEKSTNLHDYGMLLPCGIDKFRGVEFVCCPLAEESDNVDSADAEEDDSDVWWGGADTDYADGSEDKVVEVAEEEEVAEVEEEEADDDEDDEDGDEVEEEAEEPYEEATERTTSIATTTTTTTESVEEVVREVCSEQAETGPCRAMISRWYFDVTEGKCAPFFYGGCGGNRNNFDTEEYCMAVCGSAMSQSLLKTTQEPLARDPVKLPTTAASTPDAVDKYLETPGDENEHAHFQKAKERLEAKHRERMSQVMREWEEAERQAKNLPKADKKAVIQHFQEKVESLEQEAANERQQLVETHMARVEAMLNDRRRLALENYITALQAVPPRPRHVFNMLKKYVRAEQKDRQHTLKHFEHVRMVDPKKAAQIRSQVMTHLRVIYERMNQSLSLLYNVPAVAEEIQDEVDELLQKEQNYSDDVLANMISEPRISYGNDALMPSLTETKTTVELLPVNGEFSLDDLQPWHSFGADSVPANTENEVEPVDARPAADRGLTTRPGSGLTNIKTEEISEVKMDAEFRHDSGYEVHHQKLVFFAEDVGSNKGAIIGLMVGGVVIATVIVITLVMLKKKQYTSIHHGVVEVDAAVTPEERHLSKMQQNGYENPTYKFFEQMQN
row,IC50,Structure (SMILES)
1,3620 nM,CN(C)c1ccc(/C=C/c2cc3ccc(O)cc3o2)cc1
2,2950 nM,Nc1ccc(/C=C/c2cc3cc(O)ccc3o2)cc1
3,200 nM,CN(C)c1ccc(/C=C/c2cc3cc(Cl)ccc3o2)cc1
4,160 nM,COc1ccc2oc(/C=C/c3ccc(N(C)C)c(OC)c3)cc2c1
5,1980 nM,CN(C)c1ccc(/C=C/c2cc3cc(F)ccc3o2)cc1
6,470 nM,CN(C)c1ccc(/C=C/c2cc3cc(Br)ccc3o2)cc1
7,800 nM,CNc1ccc(/C=C/c2cc3ccc(OC)cc3o2)cc1
8,3210 nM,CN(C)c1ccc(/C=C/c2cc3ccc(Cl)cc3o2)cc1
9,1340 nM,CN(C)c1ccc(/C=C/c2cc3ccc(Br)cc3o2)cc1
10,5440 nM,COc1ccc2cc(/C=C/c3ccc(N)cc3)oc2c1
11,2160 nM,CNc1ccc(/C=C/c2cc3cc(O)ccc3o2)cc1
12,160 nM,CN(C)c1ccc(/C=C/c2cc3cc(O)ccc3o2)cc1
13,3440 nM,Cc1ccc2cc(/C=C/c3ccc(N(C)C)cc3)oc2c1
14,2190 nM,CN(C)c1ccc(/C=C/c2cc3ccc(F)cc3o2)cc1
15,2800 nM,CN(C)c1ccc(/C=C/c2cc3ccc(I)cc3o2)cc1
16,820 nM,COc1ccc2oc(/C=C/c3ccc(N)cc3)cc2c1
17,2300 nM,CN(C)c1ccc(/C=C/c2cc3ccccc3o2)cc1
18,810 nM,COc1ccc2oc(/C=C/c3ccc(N(C)C)cc3)cc2c1
19,130 nM,Cc1ccc2oc(/C=C/c3ccc(N(C)C)cc3)cc2c1
20,530 nM,COc1ccc2cc(/C=C/c3ccc(N(C)C)c(OC)c3)oc2c1
21,80 nM,CNc1ccc(/C=C/c2cc3cc(OC)ccc3o2)cc1
22,170 nM,CN(C)c1ccc(/C=C/c2cc3cc(I)ccc3o2)cc1
23,70 nM,COc1ccc2cc(/C=C/c3ccc(N(C)C)cc3)oc2c1
